Experimental data reported in patent publication US20200071310A1, “N-ARYL PYRAZOLES AS NRF2 REGULATORS” (GLAXOSMITHKLINE INTELLECTUAL PROPERTY DEVELOPMENT LIMITED, priority 2016, published 2020).
Counter-ions that a name gives are not always drawn.

Assays:
[1] = system: NQO1 specific enzyme activity in BEAS-2B cells; test: BEAS-2B NQO1 MTT Assay; type: cell-based; conditions: Homo sapiens; NQO1 specific activity induction, BEAS-2B cells, 48 hours; read-out: EC50
In short: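 BEAS-2B cells plated overnight, treated with compound for 48 h at 37° C, then lysed; NQO1 activity measured kinetically by MTT cocktail at 570 nm over 30 min, with lysate aliquot for Cell Titer Glo. pEC50 from 3-parameter fit of ΔOD/min versus log concentration.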

[2] = target: T1, full length Keap1 protein / full length NRF2 protein (Homo sapiens, UniProt Q14145); test: NRF2-Keap1 TR-FRET Low Protein Assay; type: binding
T1 construct: full length NRF2 protein and full length Keap1 protein (Keap1 exists a dimer) are used; His
From the text: In the NRF2-Keap1 TR-FRET (time-resolved fluorescence resonance energy transfer) low protein assay, full length NRF2 protein and full length Keap1 protein (Keap1 exists a dimer) are used. The assay detects a compound's ability to displace the binding of Keap1 FlagHis with biotinylated Avi-NRF2 protein. Biotin-NRF2 binds to streptavidin-europium (a component of the detection mix) and Keap1 FlagHis is recognized by anti-Flag APC (allophycocyanin) antibody (also a component of the detection mix). If binding occurs between the two proteins, there will be an energy transfer from the Eu+3 (donor) at 615 nm to the APC (acceptor) at 665 nm. A potential NRF2 inhibitor will cause a reduction in the TR-FRET signal by interfering with the binding of Keap1 to NRF2.
Ten nanoliters of 100× compound dose response curves (serial 3-fold dilutions) in DMSO were stamped using an Echo liquid handling system (Labcyte) into 384-well, low volume, black assay plates (Greiner, #784076), with DMSO in columns 6 and 18. An additional 90 nl DMSO was added to each well, to bring the total volume to 100 nl per well. The top concentration of compound was located in columns 1 and 13, with the serial dilutions going across the row. All reagents were diluted in assay buffer (50 mM Tris, pH 8.0, 5 mM MgCl2, 100 mM NaCl, 0.005% BSA, 1 mM DTT, and 2 mM CHAPS. The BSA, DTT, and CHAPS were added to the assay buffer on the day of assay. Using a Multidrop Combi (Thermo Electron Corporation) equipped with a metal tip dispenser, 5 ul of 1.25 nM Keap1 FlagHis protein was added to all wells of the compound plate, with the exception of the wells in column 18. Wells in column 18 received 5 ul of assay buffer instead. Plates were centrifuged at 500 rpm for 1 minute, covered with a plate lid, and incubated at 37° C. for 2.25 hours. Plates were then removed from the incubator and allowed to cool to RT for 15 minutes. Five microliters of 2.5 nM biotin-NRF2 protein was then added to all wells of the plates and the plates were spun at 500 rpm for 1 minute, followed by incubating at 4° C. for 1.25 hours. The plates were then allowed to warm to RT for 15 minutes, followed by the addition of 10 ul of detection mix (1 nM Streptavidin Eu+W1024 and 5 ug/ml mouse anti-DYKDDDDK IgG conjugated to SureLight APC antibody; both from Columbia Biosciences) to all wells. Plates were spun at 500 rpm for 1 minute, incubated for 1 hour at RT, and read on an Envision plate reader using a 320 nm excitation filter and 615 nm and 665 nm emission filters. Compound response (% inhibition) and potency (pIC50) were calculated based on the ratio of the two emissions (665 nm/615 nm) and then the transformed data was normalized against controls in the assay (control 1=1% DMSO in the presence of NRF2 and Keap1 protein and control 2=1% DMSO in the presence of only the NRF2 protein). Data analysis was handled using the software package Abase XE (Surrey, United Kingdom). The % inhibition values were calculated from the ratio (transformed) data by the equation:
100−(100*(compound response−average control 2)/(average control 1−average control2)).
For calculation of pIC50s, Abase XE used a four parameter equation.
IC50s<10 nM (+++++), IC50s 10-100 nM (++++), IC50s 100 nM-1 uM (+++), IC50s 1-10 uM (++). and IC50s 10 uM-100 uM (+), IC50s>100 uM (−), or were not determined (ND).

T1 sequence (Q14145 whole entry): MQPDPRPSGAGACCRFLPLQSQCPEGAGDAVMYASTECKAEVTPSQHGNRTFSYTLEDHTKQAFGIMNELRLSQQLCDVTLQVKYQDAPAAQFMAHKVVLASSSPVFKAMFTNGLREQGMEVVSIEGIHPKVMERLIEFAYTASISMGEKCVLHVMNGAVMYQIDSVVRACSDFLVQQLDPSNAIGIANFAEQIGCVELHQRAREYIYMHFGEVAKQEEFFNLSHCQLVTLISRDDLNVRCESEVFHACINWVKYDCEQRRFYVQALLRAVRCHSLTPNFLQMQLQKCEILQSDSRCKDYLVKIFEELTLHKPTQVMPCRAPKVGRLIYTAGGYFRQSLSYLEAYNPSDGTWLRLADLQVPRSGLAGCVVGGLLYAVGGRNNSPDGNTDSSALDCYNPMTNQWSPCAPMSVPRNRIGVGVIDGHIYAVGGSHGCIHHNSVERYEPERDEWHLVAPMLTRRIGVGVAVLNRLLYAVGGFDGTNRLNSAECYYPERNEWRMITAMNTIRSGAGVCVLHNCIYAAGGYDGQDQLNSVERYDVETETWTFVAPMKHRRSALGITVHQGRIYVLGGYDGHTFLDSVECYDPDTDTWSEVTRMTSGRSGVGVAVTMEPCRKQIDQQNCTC

EC50 [2] [nM]	Compound	EC50 [1] [nM]
10000 to 100000	COc1ccccc1S(=O)(=O)N(Cc1cccc(-n2ncc(C(=O)O)c2[C@@H]2C[C@H]2c2cn(C)nn2)c1)C1CC1 (racemic) [Example 53, 1-(3-((N-cyclopropyl-2-methoxyphenylsulfonamido)methyl)phenyl)-5-((trans)-2-(1-methyl-1H-1,2,3-triazol-4-yl)cyclopropyl)-1H-pyrazole-4-carboxylic acid]	100 to 1000
1000 to 10000	CCOc1ccc(Br)cc1CN(C)Cc1cccc(-n2ncc(C(=O)O)c2[C@@H]2C[C@H]2c2cn(C)nn2)c1 (racemic) [Example 54, 1-(3-(((5-bromo-2-ethoxybenzyl)(methyl)amino)methyl)phenyl)-5-((trans)-2-(1-methyl-1H-1,2,3-triazol-4-yl)cyclopropyl)-1H-pyrazole-4-carboxylic acid trifluoroacetate]	100 to 1000
10000 to 100000	CCCCCCN(Cc1cccc(-n2ncc(C(=O)O)c2[C@@H]2C[C@H]2c2cnn(C)c2)c1)S(=O)(=O)c1ccccc1C (racemic) [Example 56]	100 to 1000
1000 to 10000	Cc1cc([C@@H]2C[C@H]2c2c(C(=O)O)cnn2-c2cccc(CN3C[C@@H](C)Cc4cc(C(F)(F)F)ccc4S3(=O)=O)c2)on1 (racemic) [Example 57, 1-(3-(((S)-4-Methyl-1,1-dioxido-7-(trifluoromethyl)-4,5-dihydrobenzo[f][1,2]thiazepin-2(3H)-yl)methyl)phenyl)-5-(trans-2-(3-methylisoxazol-5-yl)cyclopropyl)-1H-pyrazole-4-carboxylic acid]	100 to 1000
100 to 1000	CCCCCCN(Cc1cccc(-n2ncc(C(=O)O)c2[C@@H]2C[C@H]2c2cn(C)nn2)c1)S(=O)(=O)c1ccc(Oc2ccccc2)cc1 (relative stereo) [Example 36, 1-(3-((N-hexyl-4-phenoxyphenylsulfonamido)methyl)phenyl)-5-((trans)-2-(1-methyl-1H-1,2,3-triazol-4-yl)-cyclopropyl)-1H-pyrazole-4-carboxylic acid]	100 to 1000
100 to 1000	CN(Cc1cccc(-n2ncc(C(=O)O)c2[C@@H]2C[C@H]2c2cn(C)nn2)c1)S(=O)(=O)c1ccccc1Oc1ccccc1 (relative stereo) [Example 38, 5-((trans)-2-(1-methyl-1H-1,2,3-triazol-4-yl)cyclo-propyl)-1-(3-((N-methyl-2-phenoxyphenyl-sulfonamido)-methyl)phenyl)-1H-pyrazole-4-carboxylic acid]	1000 to 10000
100 to 1000	CN(Cc1cccc(-n2ncc(C(=O)O)c2[C@@H]2C[C@H]2c2cn(C)nn2)c1)S(=O)(=O)c1ccc(-c2ccccc2)cc1 (relative stereo) [Example 39, 5-((trans)-2-(1-methyl-1H-1,2,3-triazol-4-yl)cyclo-propyl)-1-(3-((N-methyl-[1,1′-biphenyl]-4-ylsulfonamido)-methyl)phenyl)-1H-pyrazole-4-carboxylic acid]	1000 to 10000
100 to 1000	C[C@H]1Cc2ccc(C(F)(F)F)cc2S(=O)(=O)N([C@H]2CCc3c2cccc3-n2ncc(C(=O)O)c2[C@@H]2C[C@H]2c2cn(C)nn2)C1 [Example 26a, 1-((S)-1-((S)-4-Methyl-1,1-dioxido-8-(trifluoromethyl)-4,5-dihydrobenzo[f][1,2]thiazepin-2(3H)-yl)-2,3-dihydro-1H-inden-4-yl)-5-((1R,2R)-2-(1-methyl-1H-1,2,3-triazol-4-yl)cyclopropyl)-1H-pyrazole-4-carboxylic acid]	100 to 1000

Further lines, the compound ahead of its results:

Compound	EC50 [2] [nM]	EC50 [1] [nM]
CC(c1cccc(-n2ncc(C(=O)O)c2[C@@H]2C[C@H]2c2cn(C)nn2)c1)N1C[C@@H](C)Cc2ccc(C(F)(F)F)cc2S1(=O)=O (single isomer, unassigned) [Example 6, 1-(3-((R or S)-1-((S)-4-Methyl-1,1-dioxido-8-(trifluoromethyl)-4,5-dihydrobenzo[f][1,2]thiazepin-2(3H)-yl)ethyl)phenyl)-5-((1R,2R)-2-(1-methyl-1H-1,2,3-triazol-4-yl)cyclopropyl)-1H-pyrazole-4-carboxylic acid]	10 to 100	100 to 1000
CC[C@@H]1CN(Cc2cccc(-n3ncc(C(=O)O)c3[C@@H]3C[C@H]3c3cn(C)nn3)c2)S(=O)(=O)c2ccccc2O1 [Example 3]	10 to 100	100 to 1000
CC[C@H]1Cc2ccccc2S(=O)(=O)N(Cc2cccc(-n3ncc(C(=O)O)c3[C@@H]3C[C@H]3c3cn(C)nn3)c2)C1 [Example 4]	10 to 100	100 to 1000
CC[C@@H]1Cc2ccccc2CN(Cc2cccc(-n3ncc(C(=O)O)c3[C@@H]3C[C@H]3c3cn(C)nn3)c2)C1 [Example 10]	100 to 1000	1000 to 10000
CC[C@H]1Cc2ccccc2CN(Cc2cccc(-n3ncc(C(=O)O)c3[C@@H]3C[C@H]3c3cn(C)nn3)c2)C1 [Example 11]	100 to 1000	1000 to 10000
CCC1c2ccccc2OC(C)(C)CN1Cc1cccc(-n2ncc(C(=O)O)c2[C@@H]2C[C@H]2c2cn(C)nn2)c1 (some centres unmarked) [Example 12]	10000 to 100000	1000 to 10000
C[C@H]1Cc2ccccc2S(=O)(=O)N(Cc2cccc(-n3ncc(C(=O)O)c3[C@@H]3C[C@H]3c3cn(C)nn3)c2)C1 [Example 15, 1-(3-(((S)-4-methyl-1,1-dioxido-4,5-dihydrobenzo[f][1,2]thiazepin-2(3H)-yl)methyl)phenyl)-5-((trans)-2-(1-methyl-1H-1,2,3-triazol-4-yl)cyclopropyl)-1H-pyrazole-4-carboxylic acid]	100 to 1000	1000 to 10000
CC[C@H]1Cc2ccc(C(F)(F)F)cc2S(=O)(=O)N(Cc2cccc(-n3ncc(C(=O)O)c3[C@@H]3C[C@H]3c3cn(C)nn3)c2)C1 [Example 20, 1-(3-(((S)-4-ethyl-1,1-dioxido-8-(trifluoromethyl)-4,5-dihydrobenzo[f][1,2]thiazepin-2(3H)-yl)methyl)phenyl)-5-((1R,2R)-2-(1-methyl-1H-1,2,3-triazol-4-yl)cyclopropyl)-1H-pyrazole-4-carboxylic acid]	< 10	1 to 10
CCCC[C@H]1Cc2ccc(C(F)(F)F)cc2S(=O)(=O)N(Cc2cccc(-n3ncc(C(=O)O)c3[C@@H]3C[C@H]3c3cn(C)nn3)c2)C1 [Example 21, 1-(3-(((S)-4-butyl-1,1-dioxido-8-(trifluoromethyl)-4,5-dihydrobenzo[f][1,2]thiazepin-2(3H)-yl)methyl)phenyl)-5-((1R,2R)-2-(1-methyl-1H-1,2,3-triazol-4-yl)cyclopropyl)-1H-pyrazole-4-carboxylic acid]	< 10	< 1
CC[C@H]1Cc2ccc(Br)cc2S(=O)(=O)N(Cc2cccc(-n3ncc(C(=O)O)c3[C@@H]3C[C@H]3c3cn(C)nn3)c2)C1 [Example 22, 1-(3-(((S)-8-bromo-4-ethyl-1,1-dioxido-4,5-dihydrobenzo[f][1,2]thiazepin-2(3H)-yl)methyl)phenyl)-5-((1R,2R)-2-(1-methyl-1H-1,2,3-triazol-4-yl)cyclopropyl)-1H-pyrazole-4-carboxylic acid]	< 10	1 to 10
CC[C@@H]1CN(Cc2cc(-n3ncc(C(=O)O)c3C3C[C@H]3c3cn(C)nn3)ccc2C)S(=O)(=O)c2ccccc2O1 (some centres unmarked) [Example 25]	10 to 100	1000 to 10000
